Read-outs that look alike come from different tables or passages of the source. Ends that are not written are not given here.
Columns and labels:
[1] = Cell viability / cytotoxicity in HeLa transduction assays (flow cytometry FSC/SSC); format: cell-based; details: human, HeLa cells
Experimental: (§1) HeLa cells were plated (20 000 cells/well) in a 96 well-dish one day prior to transduction. Each delivery mix comprising a PEGylated shuttle agent (monomer or multimer) or a non-PEGylated shuttle agent at the indicated concentration(s) and 10 μM of a fluorescent cargo (e.g., GFP-NLS or DRI-NLS^647) was prepared in 50 μL with RPMI 1640 media completed with 10% human serum. Cells were washed once with PBS 1×, then incubated for 5 minutes with the prepared shuttle/cargo mix, PEGylated shuttle agent/cargo mix, and/or with the cargo alone as a negative control. After the incubation, 100 μL of DMEM containing 10% FBS was added to the mix and removed. Cells were washed once with PBS 1× and incubated in DMEM containing 10% FBS. Cells were then analyzed after a 1-hour incubation by fluorescence microscopy (Revolve, Echo: San Diego, CA, USA) and flow cytometry (Cytoflex™, Beckman Coulter: Indianapolis, IN, USA).
The signal intensity emitted by the fluorescent cargo and the percentage of cargo delivered cells was quantified by flow cytometry. Untreated cells were used to establish a baseline to quantify the increase in fluorescence that results from a successful internalization of the cargo in the presence of the shuttle agent in the treated cells. The percentage of cells with a fluorescence signal greater than the maximum fluorescence of untreated cells, “mean %” or “Pos cells (%)”, was used to identify positive fluorescent cells for determining transduction efficiency. The mean fluorescence intensity (Mean-FITC/APC) is the average of all fluorescence intensities of each cell with a fluorescent signal after delivery of fluorescent cargos. “Delivery scores” were calculated to provide a further indication of the total amount of cargo that was delivered per cell amongst all cargo-positive cells and was calculated by multiplying the mean fluorescence intensity (of at least duplicate samples) measured for the viable cargo-positive cells, by the mean percentage of viable cargo-positive cells, divided by 100,000. Finally, a “Delivery-Viability Score” was sometimes calculated for each peptide as the Mean viability multiplied by the Delivery Score multiplied by 10, enabling a ranking of the shuttle agents in terms of both their transduction activity and toxicity. Furthermore, the events detected by the cytometer and which correspond to the cells (size and granularity) were analyzed. Cellular toxicity (% cell viability) is obtained by comparing the size (FSC) and granularity (SSC) of each cell delivery condition to untreated cells. The delivery conditions of the cells also included the “cargo only” as a control.

in vitro = details: human, cerebrospinal or other body fluid
Excerpt: To evaluate the effect of sputum from CF patients on the shuttle agent conjugates, degradation of FSD10 or FSD10-mal-PEG20K was first assessed to determine whether addition of a PEG on the shuttle was protective from the sputum.

cells = details: following the cells being exposed to the shuttle agent and cargo; cited from earlier work
HeLa cells [2] = assay: In vitro transduction of DRI-NLS^647 cargo in HeLa cells (flow cytometry and fluorescence microscopy); format: cell-based, Human; details: used at 10 μM; cargo 10 μM
Experimental: as §1, with “Cells were washed once with PBS 1× and incubated in DMEM containing 10% FBS.” left out
(§2) The signal intensity emitted by the fluorescent cargo and the percentage of cargo delivered cells was quantified by flow cytometry. Untreated cells were used to establish a baseline to quantify the increase in fluorescence that results from a successful internalization of the cargo in the presence of the shuttle agent in the treated cells. The percentage of cells with a fluorescence signal greater than the maximum fluorescence of untreated cells, “mean %” or “Pos cells (%)”, was used to identify positive fluorescent cells for determining transduction efficiency. […]

HeLa cells [3] = assay: In vitro transduction of GFP-NLS cargo in HeLa cells (flow cytometry and fluorescence microscopy); format: cell-based; details: used at 10 μM; 10% human serum
Experimental: as §1, with “Cells were washed once with PBS 1× and incubated in DMEM containing 10% FBS.” left out
as §2

For “KWKLARAFARAIKKLGGSGGGSYARALRRQARTG [FSD10]”, the viability at 5 min, 20 µM ([1]; shuttle agent at 20 μM, 10 μM GFP-NLS) was 55%, the viability at 5 min, 40 µM ([1]; shuttle agent at 40 μM, 10 μM GFP-NLS) was 6% and the viability at 5 min ([1]; shuttle agent, 10 μM GFP-NLS, read-out: cell viabilities) was less than 10%. It also gave a metabolised at 5 min (in vitro) of 40%.

In the case of “His-CM18-PTD4: first generation shuttle agent (HHHHHHKWKLFKKIGAVLKVLTTGYARAAARQARA; His-CM18-PTD4)”, the “time to deliver GFP-NLS cargo to the cytosol” value (cells) is given as 45 s.

Work on `N=C(N)NCCC[C@H](NC(=O)[C@H](CCCNC(=N)N)NC(=O)[C@H](CCCNC(=N)N)NC(=O)[C@H](CCC(N)=O)NC(=O)[C@H](CCCNC(=N)N)NC(=O)[C@H](CCCNC(=N)N)NC(=O)[C@H](CCCCN)NC(=O)[C@H](CCCCN)NC(=O)[C@H](CCCNC(=N)N)NC(=O)CNC(=O)[C@@H](N)Cc1ccc(O)cc1)C(=O)O` [TAT] yielded a viability at 5 min ([1]; concentrations of 10 to 220 μM (data not shown), read-out: viabilities) greater than 80%.

In the case of “FSD10scr: negative control peptide, same amino acids of FSD10 rearranged in a scrambled order (KWKLARAFARAIKKLGGSGGGSYARALRRQARTG; FSD10 Scarmble)”, the “nuclear cargo transduction of independent DRI-NLS^647 by microscopy” value (HeLa cells [2]) was “no significant transduction” and the “nuclear cargo transduction of GFP-NLS by microscopy” value (HeLa cells [3]) was “no significant transduction”.

Source: patent US20240197896A1, “SYNTHETIC PEPTIDE SHUTTLE AGENT BIOCONJUGATES FOR INTRACELLULAR CARGO DELIVERY” (FELDAN BIO INC., priority 2021, published 2024)
